Data set [1] has as its system CHO (Chinese hamster ovary) cells. The data set can be described thus: Radiotracer metabolic stability, CHO cells (negative control), radio-TLC. Type of data set: in vitro ADME. The conditions noted are these: up to 2 h. As to the method: HepG2 cells were cultured in DMEM GlutaMax (Gibco, Paisley, UK) with 10% fetal calf serum (FCS) and with selective antibiotics (penicillin/streptomycin for wildtype, Zeocin (InvivoGen, San Diego, CA, USA) for CYP1A2, and Blasticidin (Gibco, Carlsbad, CA, USA) for CYP2C19 and CYP3A4 cultures). As a negative control, cultures of CHO cultivated in Ham’s F-12 medium (Gibco) with 10% FCS and 2 mM glutamine were added for the radiotracer experiments. Cells were handled under a laminar flow hood (Thermo Scientific^TM Safe 2020, Langenselbold, Germany) and were split once or twice a week by trypsinization. Cell cultures were stored horizontally in a humidified incubator (Heracell240i) at 37 °C and 5% CO2. During the time of experimental work, the utilized cell lines were regularly checked for mycoplasma. […] Cell density was determined with a cell counter (CASY® Model TT from Schärfe System, Reutlingen, Germany). […]
(§1) Incubations with radiotracer compounds were conducted, on the one hand, with radioactive ^18F-labeled compounds alone (time dependency) and, on the other hand, in the presence of 50 µM nonradioactive reference (carrier addition). For the investigation of a time-dependent metabolite formation, 2 µL aliquots were withdrawn from the supernatant, directly spotted onto the TLC plate, and analyzed as described above. […]

The test system of a further data set is HepG2 CYP1A2. Description: Radiotracer metabolic stability, CYP1A2-overexpressing HepG2 cells. Type of data set: in vitro ADME, human. The conditions noted are these: radio-TLC. The method, then: (§2) CYP-overexpressing human hepatocellular carcinoma cells (HepG2) were previously generated on the basis of subcloning human CYP1A2 [18], CYP2C19 [20], and CYP3A4 [21] cDNA into a lentiviral expression vector. The cDNA expression in the resulting vector was controlled by the human cytomegalovirus (CMV) promoter. The lentivirus expression vectors were used to produce recombinant lentivirus particles according to standard methods to infect HepG2 cells. Infected cells were selected with 3 µg/mL blasticidin for CYP2C19 and CYP3A4 and 500 µg/mL zeocin for CYP1A2 overexpression 48 h after infection. Within 3–4 weeks, antibiotic-resistant cell colonies were picked to obtain single cell-derived HepG2 clones. For more detailed information on the generation procedure of CYP-overexpressing HepG2 cells, see Steinbrecht et al..
HepG2 cells were cultured in DMEM GlutaMax (Gibco, Paisley, UK) with 10% fetal calf serum (FCS) and with selective antibiotics (penicillin/streptomycin for wildtype, Zeocin (InvivoGen, San Diego, CA, USA) for CYP1A2, and Blasticidin (Gibco, Carlsbad, CA, USA) for CYP2C19 and CYP3A4 cultures). […] Cell density was determined with a cell counter (CASY® Model TT from Schärfe System, Reutlingen, Germany). […]
as §1
UPLC–MS analyses were performed to verify the degradation behavior of the test compounds and to gain insights into the identity of the formed metabolites. […] Additionally, incubations with the nonradioactive references were carried out with 100 nM or 50 µM (according to the carrier-added samples) and analyzed. UPLC–MS/MS was performed using System 2 (55% isocratic elution for quantification of intact compound, or 25–75% gradient for nonradioactive metabolite analysis). […]

For another data set, the system named is HepG2 CYP3A4. Description: Radiotracer metabolic stability, CYP3A4-overexpressing HepG2 cells. Type of data set: in vitro ADME, human. The conditions noted are these: HepG2 CYP3A4, up to 2 h; radio-TLC. As to the method:
as §2
HepG2 cells were cultured in DMEM GlutaMax (Gibco, Paisley, UK) with 10% fetal calf serum (FCS) and with selective antibiotics (penicillin/streptomycin for wildtype, Zeocin (InvivoGen, San Diego, CA, USA) for CYP1A2, and Blasticidin (Gibco, Carlsbad, CA, USA) for CYP2C19 and CYP3A4 cultures). As a negative control, cultures of CHO cultivated in Ham’s F-12 medium (Gibco) with 10% FCS and 2 mM glutamine were added for the radiotracer experiments. […] Cell density was determined with a cell counter (CASY® Model TT from Schärfe System, Reutlingen, Germany). […]

In another data set the test system is HepG2 CYP2C19. The data set can be described thus: Radiotracer metabolic stability, CYP2C19-overexpressing HepG2 cells. Type of data set: in vitro ADME, human. As to the method: as §2
(§3) HepG2 cells were cultured in DMEM GlutaMax (Gibco, Paisley, UK) with 10% fetal calf serum (FCS) and with selective antibiotics (penicillin/streptomycin for wildtype, Zeocin (InvivoGen, San Diego, CA, USA) for CYP1A2, and Blasticidin (Gibco, Carlsbad, CA, USA) for CYP2C19 and CYP3A4 cultures). As a negative control, cultures of CHO cultivated in Ham’s F-12 medium (Gibco) with 10% FCS and 2 mM glutamine were added for the radiotracer experiments. Cells were handled under a laminar flow hood (Thermo Scientific^TM Safe 2020, Langenselbold, Germany) and were split once or twice a week by trypsinization. Cell cultures were stored horizontally in a humidified incubator (Heracell240i) at 37 °C and 5% CO2. During the time of experimental work, the utilized cell lines were regularly checked for mycoplasma. Cells were seeded in duplicates into a 96-well plate (CellStar®) with a density of 3 × 10^5 cells/well and cultured until the next day at 37 °C and 5% CO2. Cell density was determined with a cell counter (CASY® Model TT from Schärfe System, Reutlingen, Germany). Before the addition of substrates, cells were washed twice with Krebs–Henseleit buffer (KHB). The HEPES-supplemented Krebs–Henseleit buffer (pH 7.4, KHB) was freshly prepared using HEPES (5.95 g/L), D-glucose (2.0 g/L), magnesium sulfate (0.141 g/L), potassium dihydrogenphosphate (0.16 g/L), potassium chloride (0.35 g/L), sodium chloride (6.9 g/L), calcium chloride dihydrate (0.373 g/L), and sodium bicarbonate (2.1 g/L), followed by adjustment to pH 7.4 with NaOH. The utilized substances within this study were neither found (see Supplementary Materials, Figure S14) nor reported to be cytotoxic within the utilized concentration range and incubation duration.
Incubations with radiotracer compounds were conducted, on the one hand, with radioactive ^18F-labeled compounds alone (time dependency) and, on the other hand, in the presence of 50 µM nonradioactive reference (carrier addition). For the investigation of a time-dependent metabolite formation, 2 µL aliquots were withdrawn from the supernatant, directly spotted onto the TLC plate, and analyzed as described above. The same procedure was performed for carrier-added samples.
UPLC–MS analyses were performed to verify the degradation behavior of the test compounds and to gain insights into the identity of the formed metabolites. Using radiotracer incubation samples, 40 µL aliquots of the carrier-added incubations were withdrawn followed by addition of 160 µL of ACN and centrifugation (14,000 rpm (18,800–20,800× g), 4 °C, 5 min). Samples were frozen at −20 °C, and activity was allowed to decay before further mass-spectrometric analyses. Additionally, incubations with the nonradioactive references were carried out with 100 nM or 50 µM (according to the carrier-added samples) and analyzed. UPLC–MS/MS was performed using System 2 (55% isocratic elution for quantification of intact compound, or 25–75% gradient for nonradioactive metabolite analysis). The MRM mode was optimized with a solution of respective reference compounds diluted in eluent. […]

Data set [2] can be described thus: Radiotracer incubation in buffer only (control, without any cell line), radio-TLC. Type of data set: in vitro ADME. The method, then: as §3, with “The utilized substances within this study were neither found (see Supplementary Materials, Figure S14) nor reported to be cytotoxic within the utilized concentration range and incubation duration.” left out
as §1

Data set [3] has as its system murine liver microsomes (MLMs). Description: Microsome assay, murine liver microsomes. The conditions noted are these: 1 h incubation. Type of data set: in vitro ADME. As to the method:
The stability of [^18F]1 toward liver microsomes was analyzed under oxidative conditions with MLMs (MSMCP, Lot: MS046-C) and HLMs (HMMCPL; Lot: PL050E-B) according to a previously described procedure. In brief, 12.5 µL of the respective microsomes (final 1 mg/mL) were mixed with 110.4 µL of PBS, followed by the addition of 100 µL of [^18F]1 (with 5 MBq and 1% ethanol; final 0.4% ethanol) and 2.1 µL of reference compound (final concentration 50 µM 1), or an equivalent of DMSO. The resulting mixture was mixed at 37 °C for 5 min, and the reaction was then initiated by the addition of 25 µL of NADPH (final 2 mM). After 1 h incubation, the resulting samples were mixed with ice-cold ACN (1/4, v/v) and vortexed for 30 s, placed on ice for 4 min, and finally centrifuged at 13,200 rpm for 5 min at 4 °C. The supernatant was separated and used for further analysis by radio-HPLC (6–10 µL injection volume; System 1b with 25–75% gradient elution) and radio-TLC analysis (2 µL applied on TLC, analysis as described above).

“Also recorded” adds a separate entry of the source.

As to `Cc1ccc(-c2cc(C[18F])nn2-c2ccc(S(C)(=O)=O)cc2)cc1` [[^18F]1, 3-([^18F]fluoromethyl)-1-[4-(methylsulfonyl)phenyl]-5-(p-tolyl)-1H-pyrazole], the “Metabolic turnover / stability of radiotracer (in words)” value in data set [1] is recorded as “mainly intact radiotracer was found; also recorded: no metabolic turnover”; with HepG2 CYP1A2 (HepG2 CYP1A2, up to 2 h), “formation of radiometabolites was observed”; with HepG2 CYP3A4 it was “mainly intact radiotracer was found”; with HepG2 CYP2C19 (HepG2 CYP2C19, up to 2 h, radio-TLC), “formation of radiometabolites was observed”; in data set [2] (buffer only, up to 2 h, radio-TLC) it was “no metabolic turnover”. In addition, the “Intact tracer in supernatant” value was found to be 14.6% in the data set on HepG2 CYP1A2 (2 h incubation, 2–4 MBq/mL (28–187 nM)) and 1.3% with HepG2 CYP2C19 (1 h incubation, 2–4 MBq/mL (28–187 nM), radio-TLC). In the data set on HepG2 CYP2C19 (1 h, CA versus without carrier addition), the “Increase of intact tracer amount with carrier addition” value was determined as 10 fold. Besides, the “Amount of intact tracer” value in the data set with HepG2 CYP2C19 (1 h, carrier-added (CA), 50 µM 1, radio-TLC) was 67.2%; in the data set on HepG2 CYP2C19 (1 h, without carrier addition, 24 MBq/mL (460 nM), radio-TLC), 6.6%. Further, the “Defluorination without additional enzymes in the incubation buffer (KHB)” value in data set [2] (reference incubation without any cell lines) is “to a minor extent”. The “Formation of second metabolite (M2)” value in data set [3] is listed as “did not lead to the second metabolite”.
